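A five-concentration, 48-hour dose response in 96-well plates underlies each endpoint, interpolated linearly between surrounding concentrations. Definition used: TGI = concentration required for complete inhibition of growth.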
Key:
Test in all cases: inhibition of tumour cell growth, NCI panel, 48 h
M14 melanoma = tested on: M14 melanoma
HCT-15 colon = tested on: HCT-15 colon
SF-268 CNS = tested on: SF-268 CNS
LOX IMVI melanoma = tested on: LOX IMVI melanoma
CCRF-CEM leukemia = tested on: CCRF-CEM leukemia
HOP-92 NSCLC = tested on: HOP-92 NSCLC
SNB-19 CNS = tested on: SNB-19 CNS
NCI-H522 lung = tested on: NCI-H522 lung
MDA-MB-435 = tested on: MDA-MB-435
MCF7 breast = tested on: MCF7 breast

O=[N+]([O-])c1ccc(C2=Nn3cnnc3SC2)o1
TGI (M14 melanoma): 32.8 µM | TGI (HCT-15 colon): 27.2 µM | TGI (SF-268 CNS): 58.2 µM | TGI (LOX IMVI melanoma): 5.99 µM | TGI (CCRF-CEM leukemia): 51.1 µM | TGI (HOP-92 NSCLC): 49.4 µM | TGI (SNB-19 CNS): 79 µM

O=C(CCn1[nH]c(=O)c(Cl)c(Cl)c1=O)NO
TGI (NCI-H522 lung): > 100 µM | TGI (M14 melanoma): > 100 µM | TGI (HCT-15 colon): > 100 µM | TGI (SF-268 CNS): > 100 µM | TGI (LOX IMVI melanoma): > 100 µM | TGI (CCRF-CEM leukemia): > 100 µM | TGI (SNB-19 CNS): > 100 µM

[N-]=[N+]=NC12CC3C4CC5CC3C(C1)C(C5)C4C2
TGI (NCI-H522 lung): > 100 µM | TGI (M14 melanoma): > 100 µM | TGI (SF-268 CNS): > 100 µM | TGI (LOX IMVI melanoma): > 100 µM | TGI (CCRF-CEM leukemia): > 100 µM | TGI (HOP-92 NSCLC): > 100 µM | TGI (SNB-19 CNS): > 100 µM

CC(C)(C)CC(C)(C)c1cc2c(O)c(c1)Cc1cc(C(C)(C)CC(C)(C)C)cc(c1O)Cc1cc(C(C)(C)CC(C)(C)C)cc(c1O)Cc1cc(C(C)(C)CC(C)(C)C)cc(c1O)C2
TGI (NCI-H522 lung): > 100 µM | TGI (M14 melanoma): > 100 µM | TGI (HCT-15 colon): > 100 µM | TGI (SF-268 CNS): > 100 µM | TGI (CCRF-CEM leukemia): > 100 µM | TGI (HOP-92 NSCLC): > 100 µM | TGI (SNB-19 CNS): > 100 µM

CN(C)c1ccc(C(C=C2c3ccccc3Sc3ccccc32)=C(C#N)C#N)cc1
TGI (M14 melanoma): > 100 µM | TGI (HCT-15 colon): > 100 µM | TGI (SF-268 CNS): > 100 µM | TGI (LOX IMVI melanoma): > 100 µM | TGI (CCRF-CEM leukemia): > 100 µM | TGI (SNB-19 CNS): > 100 µM

COc1ccc(C(=O)C(c2ccc(OC)cc2)C2(O)C(=O)Nc3ccc([N+](=O)[O-])cc32)cc1 (stereo unspecified)
TGI (NCI-H522 lung): > 100 µM | TGI (M14 melanoma): > 100 µM | TGI (HCT-15 colon): > 100 µM | TGI (SF-268 CNS): > 100 µM | TGI (CCRF-CEM leukemia): > 100 µM | TGI (HOP-92 NSCLC): > 100 µM | TGI (SNB-19 CNS): > 100 µM

CCOc1ccccc1C=C1c2ccccc2C(=O)c2ccccc21
TGI (NCI-H522 lung): 6.57 µM | TGI (M14 melanoma): 64.5 µM | TGI (HCT-15 colon): > 100 µM | TGI (SF-268 CNS): > 100 µM | TGI (LOX IMVI melanoma): > 100 µM | TGI (CCRF-CEM leukemia): 35.5 µM | TGI (HOP-92 NSCLC): 72.9 µM | TGI (SNB-19 CNS): > 100 µM

CC(C)c1ccccc1NC(=O)CCc1n[nH]c(=S)o1
TGI (NCI-H522 lung): > 100 µM | TGI (M14 melanoma): > 100 µM | TGI (HCT-15 colon): > 56.9 µM | TGI (SF-268 CNS): > 100 µM | TGI (LOX IMVI melanoma): > 100 µM | TGI (CCRF-CEM leukemia): > 100 µM | TGI (HOP-92 NSCLC): > 100 µM | TGI (SNB-19 CNS): > 100 µM

COc1cc(C#CC(=O)OC/C=C/c2ccc3c(c2)OCO3)cc(OC)c1OC
TGI (M14 melanoma): 79.8 µM | TGI (HCT-15 colon): 78.8 µM | TGI (MDA-MB-435): 38.1 µM | TGI (SF-268 CNS): 59.5 µM | TGI (LOX IMVI melanoma): 47.3 µM | TGI (CCRF-CEM leukemia): 49.3 µM | TGI (HOP-92 NSCLC): 54.5 µM | TGI (SNB-19 CNS): > 100 µM | TGI (MCF7 breast): 64.8 µM

N#Cc1nc(Nc2cccc3ccccc23)sc1N
TGI (NCI-H522 lung): 46.4 µM | TGI (M14 melanoma): > 100 µM | TGI (HCT-15 colon): > 100 µM | TGI (SF-268 CNS): > 100 µM | TGI (LOX IMVI melanoma): 33.4 µM | TGI (HOP-92 NSCLC): 52.3 µM | TGI (SNB-19 CNS): > 100 µM

NC(=O)NC1C(c2ccccc2)=C1c1ccccc1
TGI (M14 melanoma): 39.4 µM | TGI (HCT-15 colon): 32.4 µM | TGI (MDA-MB-435): 40.3 µM | TGI (SF-268 CNS): 32 µM | TGI (LOX IMVI melanoma): 38.4 µM | TGI (CCRF-CEM leukemia): > 100 µM | TGI (HOP-92 NSCLC): 38.1 µM | TGI (SNB-19 CNS): > 100 µM | TGI (MCF7 breast): 33.6 µM

CC(C)N(C(=O)C12C3C4C5(C#N)C3C1(C#N)C5C42I)C(C)C (stereo unspecified)
TGI (NCI-H522 lung): > 100 µM | TGI (M14 melanoma): > 100 µM | TGI (HCT-15 colon): > 100 µM | TGI (SF-268 CNS): > 100 µM | TGI (LOX IMVI melanoma): > 78.8 µM | TGI (CCRF-CEM leukemia): > 59.7 µM | TGI (HOP-92 NSCLC): > 100 µM | TGI (SNB-19 CNS): > 100 µM

O=C(/C=C/c1ccccc1O)c1ccccc1O
TGI (NCI-H522 lung): > 100 µM | TGI (HCT-15 colon): > 100 µM | TGI (SF-268 CNS): > 100 µM | TGI (LOX IMVI melanoma): > 100 µM | TGI (CCRF-CEM leukemia): > 100 µM | TGI (HOP-92 NSCLC): > 100 µM | TGI (SNB-19 CNS): > 100 µM

CC(=O)c1cccc(NC(=O)C(=O)NNc2n[nH]c(=S)n2N)c1
TGI (NCI-H522 lung): 21 µM | TGI (M14 melanoma): 6.15 µM | TGI (HCT-15 colon): 15.9 µM | TGI (SF-268 CNS): 27.7 µM | TGI (LOX IMVI melanoma): 4.57 µM | TGI (CCRF-CEM leukemia): 20.3 µM | TGI (HOP-92 NSCLC): 28.7 µM | TGI (SNB-19 CNS): 21.2 µM | TGI (MCF7 breast): 18.7 µM
